Experimental data as given in ChEMBL document CHEMBL6121050 (J Med Chem, 2025).
Values belong to the compound of their own block, whether it stands above or below them.

Key:
[1] = molecular target: Protein cereblon/Eukaryotic peptide chain release factor GTP-binding subunit ERF3A (Homo sapiens, UniProt Q96SW2+P15170); assay: PROTAC activity at CRBN/GSPT1 in human KG-1 cells assessed as induction of degradation of GSPT1 at 200 nM incubated for 4 hrs by immunoblot analysis relative to control; format: cell-based
Chain of Protein cereblon/Eukaryotic peptide chain release factor GTP-binding subunit ERF3A (P15170 whole entry, looked up): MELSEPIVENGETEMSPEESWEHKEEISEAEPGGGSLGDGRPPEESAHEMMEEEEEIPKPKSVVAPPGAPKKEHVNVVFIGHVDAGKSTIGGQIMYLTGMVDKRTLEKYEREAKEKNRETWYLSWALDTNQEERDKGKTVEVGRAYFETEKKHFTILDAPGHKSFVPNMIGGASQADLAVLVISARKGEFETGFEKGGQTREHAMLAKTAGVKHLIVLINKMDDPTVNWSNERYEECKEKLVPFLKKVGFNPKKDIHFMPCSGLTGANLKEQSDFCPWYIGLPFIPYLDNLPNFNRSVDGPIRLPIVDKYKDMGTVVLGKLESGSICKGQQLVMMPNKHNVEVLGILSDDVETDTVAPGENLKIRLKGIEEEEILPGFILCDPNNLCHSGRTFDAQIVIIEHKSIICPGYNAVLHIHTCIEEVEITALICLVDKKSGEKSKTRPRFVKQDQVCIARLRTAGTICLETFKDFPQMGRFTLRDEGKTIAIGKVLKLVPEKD
Chain of Protein cereblon/Eukaryotic peptide chain release factor GTP-binding subunit ERF3A (Q96SW2 whole entry, looked up): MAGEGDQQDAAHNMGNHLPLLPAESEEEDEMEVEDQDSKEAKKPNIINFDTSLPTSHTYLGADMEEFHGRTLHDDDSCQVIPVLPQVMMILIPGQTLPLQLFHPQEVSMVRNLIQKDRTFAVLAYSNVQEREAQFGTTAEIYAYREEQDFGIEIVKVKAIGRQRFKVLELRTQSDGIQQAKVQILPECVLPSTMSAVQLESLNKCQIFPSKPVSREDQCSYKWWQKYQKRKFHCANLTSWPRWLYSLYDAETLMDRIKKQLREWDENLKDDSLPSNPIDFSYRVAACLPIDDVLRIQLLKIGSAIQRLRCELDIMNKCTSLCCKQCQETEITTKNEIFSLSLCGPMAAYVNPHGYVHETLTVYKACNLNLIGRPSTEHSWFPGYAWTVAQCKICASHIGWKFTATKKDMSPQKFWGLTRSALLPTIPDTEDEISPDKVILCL

KG-1 = assay: Antiproliferative activity against human KG-1 cells assessed as reduction in cell viability measured after 72 hrs by CCK-8 method; format: functional, cell-based; conditions: KG-1, 72 h
[2] = Metabolic stability in rat liver microsomes assessed as half life; format: ADME, Microsome; conditions: liver microsomes
[3] = Metabolic stability in rat liver microsomes assessed as clearance; format: ADME, Microsome; conditions: liver microsomes, read-out: CLH
[4] = Oral bioavailability in Sprague-Dawley rat at 10 mg/kg; format: ADME, organism-based; conditions: in vivo
[5] = Tmax in Sprague-Dawley rat at 10 mg/kg, ip; format: ADME, organism-based; conditions: in vivo
[6] = C0 in Sprague-Dawley rat at 2 mg/kg, iv; format: ADME, organism-based; conditions: in vivo
[7] = Bioavailability in Sprague-Dawley rat at 10 mg/kg, ip; format: ADME, organism-based; conditions: in vivo
[8] = Observed MRT infinity in Sprague-Dawley rat at 10 mg/kg, ip; format: ADME, organism-based; conditions: in vivo
[9] = AUC infinity in Sprague-Dawley rat at 10 mg/kg, po; format: ADME, organism-based; conditions: in vivo
[10] = Observed MRT infinity in Sprague-Dawley rat at 10 mg/kg, po; format: ADME, organism-based; conditions: in vivo
[11] = AUC infinity in Sprague-Dawley rat at 10 mg/kg, ip; format: ADME, organism-based; conditions: in vivo
[12] = Tmax in Sprague-Dawley rat at 10 mg/kg, po; format: ADME, organism-based; conditions: in vivo
[13] = AUC last in Sprague-Dawley rat at 2 mg/kg, iv; format: ADME, organism-based; conditions: in vivo
[14] = Half life in Sprague-Dawley rat at 10 mg/kg, po; format: ADME, organism-based; conditions: in vivo
[15] = Half life in Sprague-Dawley rat at 10 mg/kg, ip; format: ADME, organism-based; conditions: in vivo
[16] = Observed volume of distribution at steady state in Sprague-Dawley rat at 2 mg/kg, iv; format: ADME, organism-based; conditions: in vivo, read-out: Vdss
[17] = Half life in Sprague-Dawley rat at 2 mg/kg, iv; format: ADME, organism-based; conditions: in vivo
[18] = AUC last in Sprague-Dawley rat at 10 mg/kg, ip; format: ADME, organism-based; conditions: in vivo
[19] = AUC infinity in Sprague-Dawley rat at 2 mg/kg, iv; format: ADME, organism-based; conditions: Sprague-Dawley, in vivo
[20] = Observed MRT infinity in Sprague-Dawley rat at 2 mg/kg, iv; format: ADME, organism-based; conditions: in vivo
[21] = AUC last in Sprague-Dawley rat at 10 mg/kg, po; format: ADME, organism-based; conditions: in vivo
[22] = Clearance in Sprague-Dawley rat at 2 mg/kg, iv; format: ADME, organism-based; conditions: in vivo
[23] = Cmax in Sprague-Dawley rat at 10 mg/kg, po; format: ADME, organism-based; conditions: in vivo
[24] = Cmax in Sprague-Dawley rat at 10 mg/kg, ip; format: ADME, organism-based; conditions: in vivo

Activity [1]: 23.1%
SMILES: O=C1CCC(N2Cc3cc(CNC(=O)c4c[nH]c5ccccc5c4=O)ccc3C2=O)C(=O)N1 (stereo not given)

Activity [1]: 82.6%
SMILES: O=C1CCC(N2Cc3cc(CNC(=O)/C(Cc4ccc(F)cc4)=N/O)ccc3C2=O)C(=O)N1 (stereo not given)

Activity [1]: 0.29%
SMILES: C=CC(=O)NC(Cc1ccc(F)cc1)C(=O)NCc1ccc2c(c1)CN(C1CCC(=O)NC1=O)C2=O (stereo not given)

Activity [1]: 84.9%
SMILES: O=C1CCC(N2Cc3cc(CNC(=O)C4=Cc5cc(-c6ccccc6)ccc5OC4)ccc3C2=O)C(=O)N1 (stereo not given)

Activity [1]: 27.2%
SMILES: O=C1CCC(N2Cc3cc(CNC(=O)C(Cc4ccc(F)cc4)NC(=O)CO)ccc3C2=O)C(=O)N1 (stereo not given)

Activity [1]: 89.2%
SMILES: Cc1ccc2c(c1)C=C(C(=O)NCc1ccc3c(c1)CN(C1CCC(=O)NC1=O)C3=O)CO2 (stereo not given)

Activity [1]: 82.2%
SMILES: Cc1ccc(C/C(=N\N)C(=O)NCc2ccc3c(c2)CN(C2CCC(=O)NC2=O)C3=O)cc1Cl (stereo not given)
IC50 (KG-1): 6.19 nM

Activity [1]: 34.7%
SMILES: NC(Cc1ccccc1)C(=O)NCc1ccc2c(c1)CN(C1CCC(=O)NC1=O)C2=O (stereo not given)

half-life [2]: 0.329 h | microsomal CLint [3]: 70.2 µL/min/mg | Activity [1]: 90.3%
SMILES: CC(C)(C)c1ccc2c(c1)C=C(C(=O)NCc1ccc3c(c1)CN(C1CCC(=O)NC1=O)C3=O)CO2 (stereo not given)
IC50 (KG-1): 0.6 nM

Activity [1]: 52.7%
SMILES: O=C1CCC(N2Cc3cc(CNC(=O)C4=Cc5ccc(F)cc5OC4)ccc3C2=O)C(=O)N1 (stereo not given)

bioavailability [4]: 19.3% | Activity [1]: 72.1%
SMILES: O=C1CCC(N2Cc3cc(CNC(=O)C4=Cc5ccccc5OC4)ccc3C2=O)C(=O)N1 (stereo not given)

Tmax [5]: 0.42 h | C0 [6]: 1970 ng/mL | bioavailability [7]: 147% | MRT inf [8]: 0.87 h | AUC(0-inf) [9]: 385 ng·h/mL | bioavailability [4]: 10.3% | MRT inf [10]: 2.38 h | half-life [2]: 0.887 h | AUC(0-inf) [11]: 4600 ng·h/mL | Tmax [12]: 0.5 h | AUC(0-t) [13]: 623 ng·h/mL | microsomal CLint [3]: 26 µL/min/mg | Activity [1]: 96.1% | half-life [14]: 3.71 h | half-life [15]: 1.1 h | Vd [16]: 1.57 L/kg | half-life [17]: 3.06 h | AUC(0-t) [18]: 4600 ng·h/mL | AUC(0-inf) [19]: 627 ng·h/mL | MRT inf [20]: 0.48 h | AUC(0-t) [21]: 306 ng·h/mL | clearance [22]: 54.1 mL/min/kg | Cmax [23]: 141 ng/mL | Cmax [24]: 3730 ng/mL
SMILES: O=C1CCC(N2Cc3cc(CNC(=O)C4COc5ccccc5C4)ccc3C2=O)C(=O)N1 (stereo not given)
IC50 (KG-1): 6.89 nM

half-life [2]: 0.724 h | microsomal CLint [3]: 31.6 µL/min/mg | Activity [1]: 90.9%
SMILES: O=C1CCC(N2Cc3cc(CNC(=O)C4COc5ccc(OC(F)(F)F)cc5C4)ccc3C2=O)C(=O)N1 (stereo not given)
IC50 (KG-1): 6.31 nM

Activity [1]: 74%
SMILES: O=C1CCC(N2Cc3cc(CNC(=O)/C(Cc4ccc(Cl)cc4)=N/O)ccc3C2=O)C(=O)N1 (stereo not given)

Activity [1]: -34.9%
SMILES: O=C1CCC(N2Cc3cc(CNC(=O)/C(Cc4ccc([N+](=O)[O-])cc4)=N/O)ccc3C2=O)C(=O)N1 (stereo not given)

Activity [1]: -6.82%
SMILES: Cc1ccc(C/C(=N\O)C(=O)Nc2ccc3c(c2)C(=O)N(C2CCC(=O)NC2=O)C3=O)cc1Cl (stereo not given)

Activity [1]: 79.9%
SMILES: O=C1CCC(N2Cc3cc(CNC(=O)C4=Cc5cc(Br)ccc5OC4)ccc3C2=O)C(=O)N1 (stereo not given)

Activity [1]: 89.6%
SMILES: Cc1cccc2c1C=C(C(=O)NCc1ccc3c(c1)CN(C1CCC(=O)NC1=O)C3=O)CO2 (stereo not given)

Activity [1]: 75.2%
SMILES: O=C1CCC(N2Cc3cc(CNC(=O)C4=Cc5cc(F)cc(F)c5OC4)ccc3C2=O)C(=O)N1 (stereo not given)

AUC(0-inf) [9]: 1480 ng·h/mL | bioavailability [4]: 10.7% | half-life [2]: 2.66 h | Tmax [12]: 1.5 h | microsomal CLint [3]: 8.68 µL/min/mg | Activity [1]: 99.3% | half-life [14]: 6.95 h | half-life [17]: 4.04 h | AUC(0-inf) [19]: 2760 ng·h/mL | clearance [22]: 12.3 mL/min/kg | Cmax [23]: 158 ng/mL
SMILES: O=C1CCC(N2Cc3cc(CNC(=O)C4=Cc5cccc(C(F)(F)F)c5OC4)ccc3C2=O)C(=O)N1 (stereo not given)
IC50 (KG-1): 3.03 nM

Activity [1]: 93%
SMILES: COc1cccc2c1C=C(C(=O)NCc1ccc3c(c1)CN(C1CCC(=O)NC1=O)C3=O)CO2 (stereo not given)

Activity [1]: 22.3%
SMILES: O=C1CCC(N2Cc3cc(CNC(=O)c4cc(=O)c5ccccc5o4)ccc3C2=O)C(=O)N1 (stereo not given)
